Tests used:
vesicular ACh transport = details: earlier studies; cited from earlier work
vesamicol receptor [1] = details: cited from earlier work; for vesamicol receptor affinity (in words): earlier studies
vesamicol receptor [2] = details: rodent brain, cited from earlier work
[3] = Tissue distribution of radiotracer in rats; type: in vivo, male Wistar rats
Procedure: Tissue Distribution Experiments
Four groups of male Wistar rats (n=4) weighing 200-350 g were used in these experiments. Each animal received, while under ether anesthesia, an intravenous injection of the radiotracer (3-5 uCi) dissolved in 0.1 mL of 50% aqueous ethanol. At 5, 30, 60 and 180 min post-injection, blood was collected from the anesthetized animal by cardiac puncture, and the animal was immediately sacrificed by cardiectomy. The organs and tissues of interest were harvested, transferred to preweighed tubes and counted in a Beckman gamma counter. The tubes were subsequently reweighed to give the weight of the corresponding tissues. Preweighed tubes containing 1 mL samples of a 1:100 dilution of the injected dose were also counted and used as reference for calculating the tissue accumulation of radioactivity. The accumulation of radiotracer was expressed as a percentage of injected dose per gram of tissue.
The animals were injected intravenously with 4.9 uCi of the radiotracer i
0.1 ml of 50% aq. EtOH.
The animals were injected with 3.7 uCi of the radiotracer in 0.1 ml of 50

vesamicol receptor [4] = test: Ex vivo autoradiography of rat brain; type: in vivo, male Wistar rats; details: 3 hrs after iv
Procedure: Ex-vivo Autoradiographic Studies
Two groups of male Wistar rats (n=2) were used in these experiments. Each animal in the first group received an i.v. injection of (+)-[^125 I]12h (385 uCi in 0.1/ml of 50% aq. EtOH). Similarly, animals in the second group received 330 uCi of (-)-[^125 I]12h (in 0.1 ml of 50% aq. EtOH). After 3 hrs, the animals were sacrificed by decapitation. The brains were carefully removed, embedded in Tissue Tek OCT medium and frozen to […] Twenty micron thick coronal brain slices were subsequently obtained by sectioning rostrocaudally with a Reichert HistoSTAT microtome at -15°. The tissue sections were apposed to Kodak NMC film accompanied by ^125 I-labeled external standards (^125 I-Microscales from Amersham). For delineation of cytoarchitecture, adjacent tissue sections were subjected to Nissl staining.

O[C@@H]1Cc2ccccc2C[C@H]1N1CCC(c2ccccc2)CC1 (relative stereo) [Compound 2a]
inhibition of vesicular ACh transport / activity (in words) (vesicular ACh transport): potent inhibitors of vesicular ACh transport | vesamicol receptor affinity (in words) (vesamicol receptor [1]): potent ligands

OCCN1CCC(c2ccccc2)CC1 [Compound 4a]
inhibition of vesicular ACh transport / activity (in words) (vesicular ACh transport): substantially diminished activity

O[C@@H]1CCCC[C@H]1N1CCC(c2ccccc2)CC1 (relative stereo) [[^3 H]vesamicol]
cortical [^3 H]vesamicol binding after lesioning a known cholinergic pathway (in words) (vesamicol receptor [2]; lesion): significant decrease | [^3 H]vesamicol distribution versus other cholinergic markers (in words) (vesamicol receptor [2]): correlate well with other markers of cholinergic innervation

OC1CCN(Cc2cccc([125I])c2)CC1N1CCC(c2ccccc2)CC1 (stereo not drawn) [(+)-[^125 I]12h, (+)- and (-)-4-hydroxy-1-(3-[I^125]iodobenzyl)-3-(4-phenyl-piperidinyl)piperidine]
Ratio brain/blood ([3]; 5 min, iv): 2.33 | Ratio heart/blood ([3]; 5 min, iv): 4.68 | Tissue distribution, blood ([3]; 5 min, iv): 0.24 % dose/g of tissue | Tissue distribution, brain ([3]; 5 min, iv): 0.57 % dose/g of tissue | Tissue distribution, gonads ([3]; 5 min, iv): 0.13 % dose/g of tissue | Tissue distribution, heart ([3]; 5 min, iv): 1.14 % dose/g of tissue | Tissue distribution, kidney ([3]; 5 min, iv): 2.25 % dose/g of tissue | Tissue distribution, liver ([3]; 5 min, iv): 1.60 % dose/g of tissue | Tissue distribution, lung ([3]; 5 min, iv): 3.67 % dose/g of tissue | Tissue distribution, muscle ([3]; 5 min, iv): 0.34 % dose/g of tissue | Tissue distribution, spleen ([3]; 5 min, iv): 0.76 % dose/g of tissue | Tissue distribution, thyroid ([3]; 5 min, iv): 1.60 % dose/g of tissue | radioactivity in liver, heart, thyroid and spleen (in words) ([3]; 5 min, iv): Moderate to low levels | radioactivity in lung and kidney (in words) ([3]; 5 min, iv): high levels of radioactivity | radioactivity in brain ([3]; 5 min post-injection, iv): 1.06 % of the injected dose | Ratio brain/blood ([3]; 30 min, iv): 3.18 | Ratio heart/blood ([3]; 30 min, iv): 2.33 | Tissue distribution, blood ([3]; 30 min, iv): 0.12 % dose/g of tissue | Tissue distribution, brain ([3]; 30 min, iv): 0.36 % dose/g of tissue | Tissue distribution, gonads ([3]; 30 min, iv): 0.15 % dose/g of tissue | Tissue distribution, heart ([3]; 30 min, iv): 0.26 % dose/g of tissue | Tissue distribution, kidney ([3]; 30 min, iv): 1.32 % dose/g of tissue | Tissue distribution, liver ([3]; 30 min, iv): 2.18 % dose/g of tissue | Tissue distribution, lung ([3]; 30 min, iv): 1.21 % dose/g of tissue | Tissue distribution, muscle ([3]; 30 min, iv): 0.16 % dose/g of tissue | Tissue distribution, spleen ([3]; 30 min, iv): 1.07 % dose/g of tissue | Tissue distribution, thyroid ([3]; 30 min, iv): 2.33 % dose/g of tissue | Ratio brain/blood ([3]; 60 min, iv): 3.08 | Ratio heart/blood ([3]; 60 min, iv): 1.70 | Tissue distribution, blood ([3]; 60 min, iv): 0.09 % dose/g of tissue | Tissue distribution, brain ([3]; 60 min, iv): 0.27 % dose/g of tissue | Tissue distribution, gonads ([3]; 60 min, iv): 0.17 % dose/g of tissue | Tissue distribution, heart ([3]; 60 min, iv): 0.15 % dose/g of tissue | Tissue distribution, kidney ([3]; 60 min, iv): 0.87 % dose/g of tissue | Tissue distribution, liver ([3]; 60 min, iv): 1.91 % dose/g of tissue | Tissue distribution, lung ([3]; 60 min, iv): 0.82 % dose/g of tissue | Tissue distribution, muscle ([3]; 60 min, iv): 0.11 % dose/g of tissue | Tissue distribution, spleen ([3]; 60 min, iv): 0.86 % dose/g of tissue | Tissue distribution, thyroid ([3]; 60 min, iv): 4.59 % dose/g of tissue | radioactivity in brain ([3]; 60 min post-injection, iv): 0.51 % of the injected dose | Ratio brain/blood ([3]; 180 min, iv): 2.35 | Ratio heart/blood ([3]; 180 min, iv): 1.60 | Tissue distribution, blood ([3]; 180 min, iv): 0.07 % dose/g of tissue | Tissue distribution, brain ([3]; 180 min, iv): 0.15 % dose/g of tissue | Tissue distribution, gonads ([3]; 180 min, iv): 0.16 % dose/g of tissue | Tissue distribution, heart ([3]; 180 min, iv): 0.10 % dose/g of tissue | Tissue distribution, kidney ([3]; 180 min, iv): 0.50 % dose/g of tissue | Tissue distribution, liver ([3]; 180 min, iv): 1.18 % dose/g of tissue | Tissue distribution, lung ([3]; 180 min, iv): 0.39 % dose/g of tissue | Tissue distribution, muscle ([3]; 180 min, iv): 0.08 % dose/g of tissue | Tissue distribution, spleen ([3]; 180 min, iv): 0.44 % dose/g of tissue | Tissue distribution, thyroid ([3]; 180 min, iv): 13.13 % dose/g of tissue | radioactivity in brain ([3]; 3 hrs post-injection, iv): 0.39 % of the injected dose | radioactivity in thyroid (in words) ([3]; beginning to 3 hrs post-injection): moderate at the beginning but increased significantly by 3 hrs post-injection | brain regional distribution: cortex, hippocampus and cerebellum (vesamicol receptor [4]): Moderate levels of activity | brain regional distribution: interpeduncular nucleus, olfactory tubercle, nucleus accumbens, amygdala, caudate-putamen, nuclei of fifth and seventh cranial nerves (vesamicol receptor [4]): high levels of radioactivity

Nc1cccc2c1C[C@@H](N1CCC(c3ccccc3)CC1)[C@H](O)C2 (relative stereo) [Compound 2b]
inhibition of vesicular ACh transport / activity (in words) (vesicular ACh transport): potent inhibitors of vesicular ACh transport | vesamicol receptor affinity (in words) (vesamicol receptor [1]): potent ligands

CCC(O)CN1CCC(c2ccccc2)CC1 (centres unmarked) [Compound 4b]
inhibition of vesicular ACh transport / activity (in words) (vesicular ACh transport): substantially diminished activity | increase in activity (vesamicol receptor [1]; 4b relative to 4a): 30 fold
